Test results from EP0728482A2, “Use of hcp specific compounds to enhance erythropoiesis” (SMITHKLINE BEECHAM CORPORATION, priority 1995, dated 1996).

Target: T1, human lck SH2 domain (Homo sapiens, UniProt P06239)
T1 construct: made in house; host or cells: E. coli AR120
Assay: ELISA-based SH2 domain / pY peptide binding assay, lck SH2 domain
Details: inhibition of binding of 0.1 uM biotinylated pY peptide to SH2 domain fusion protein
Protocol: The inhibitory activity of compounds at the different human SH2 domains was determined in vitro using SH2 domains expressed as fusion proteins in E. coli. The SH2 domains used herein were the human forms of the src SH2 domain, Grb2 SH2 domain, lck SH2 domain, fyn SH2 domain, SH-PTP2 SH2 domain, p85 SH2 domain and hcp SH2 domain.
The fusion proteins containing the src, lck and hcp SH2 domains were expressed as the general sequence: DET1-DET2-spacer-ek-SH2, where DET1, DET2, spacer, ek and SH2 are as described below. DET1 ("defined epitope tag 1") (SEQ ID NO: 1) is an 11 amino acid sequence found in the Human Immunodeficiency Virus Type 1 (HIV-1) envelope protein gp120 (or gp160). Monoclonal antibodies to various epitopes of HIV-1 gp120 (or gp 160) are known in the art, see, for example U.S. Patent 5,166,050. One preferred example is monoclonal antibody 178.1 (see, e.g., Thiriart et al., J. Immunol., 143:1832-1836 (1989)), which was prepared by immunization of mice with a yeast-expressed HIV-1 gp160 molecule from strain BH10 (Ratner et al., Nature, 313:277-284 (1985)). This tag was used for detection of expression (by Western blot), for purification of the protein (by affinity chromatography), and for configuring assays in which the fusion protein was captured or immobilized using the 178.1 antibody. […]

T1 sequence (P06239 127-224 limits assumed): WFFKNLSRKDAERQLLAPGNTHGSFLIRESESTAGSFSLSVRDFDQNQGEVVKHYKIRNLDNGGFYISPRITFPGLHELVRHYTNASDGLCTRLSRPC

IC50: > 300 µM
SMILES: CCCCCCNC(=O)[C@H]1CC[C@H](CNC(=O)c2ccc(C(=O)c3ccc(C(=O)O)cc3)cc2)CC1 [Compound 6, 4-carboxy-benzophenone-4-carboxamido-trans-4-methyl-cyclohexyl-N-hexyl carboxamide]
